From PubChem BioAssay (NCI)
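Test compounds were applied to cells in 96-well plates for 48 hours at 5 doses. Here, GI50 denotes the concentration required for 50% inhibition of growth. TGI is the concentration that stops growth completely.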

Tests used:
Assay in all cases: NCI anticancer screen, dose series, 48 h
NCI-H460 lung = system: NCI-H460 lung
OVCAR-3 ovarian = system: OVCAR-3 ovarian
OVCAR-4 ovarian = system: OVCAR-4 ovarian
OVCAR-8 ovarian = system: OVCAR-8 ovarian
RPMI-8226 leukemia = system: RPMI-8226 leukemia
SF-295 CNS = system: SF-295 CNS
SNB-75 CNS = system: SNB-75 CNS
SW-620 colon = system: SW-620 colon
UACC-257 melanoma = system: UACC-257 melanoma
DU-145 prostate = system: DU-145 prostate

SMILES | TGI (NCI-H460 lung) [µM] | TGI (OVCAR-3 ovarian) [µM] | TGI (OVCAR-4 ovarian) [µM] | TGI (OVCAR-8 ovarian) [µM] | TGI (RPMI-8226 leukemia) [µM] | TGI (SF-295 CNS) [µM] | TGI (SNB-75 CNS) [µM] | TGI (SW-620 colon) [µM] | TGI (UACC-257 melanoma) [µM] | TGI (DU-145 prostate) [µM] | GI50 (DU-145 prostate) [µM] | GI50 (OVCAR-4 ovarian) [µM] | GI50 (OVCAR-8 ovarian) [µM] | GI50 (SF-295 CNS) [µM] | GI50 (SNB-75 CNS) [µM] | GI50 (SW-620 colon) [µM] | GI50 (UACC-257 melanoma) [µM] | GI50 (NCI-H460 lung) [µM] | GI50 (OVCAR-3 ovarian) [µM] | GI50 (RPMI-8226 leukemia) [µM]
CC(=O)C1C(=O)N(C(C)C)C[C@@H]2CCC(=O)C[C@H]12 (stereo partly specified) | > 100 | > 100 | > 100 | > 100 | > 100 | > 100 | > 100 | > 100 | > 100 |  |  |  |  |  |  |  |  |  |  | 
CNC(=O)CN(CC(N)=O)C(N)=O | > 100 | > 100 | > 100 | > 100 | > 100 | > 100 | > 100 | > 100 |  |  |  |  |  |  |  |  |  |  |  | 
CCOc1ccc(C(CN2CCOCC2)C(C)=O)cc1OC (stereo unspecified) | 32.5 |  | 33.3 | 37.7 | 83.5 | > 100 | 32.6 | 31.2 | 45.8 |  |  |  |  |  |  |  |  |  |  | 
C/C=C1\C(=O)OC2CCN3CCC(COC(=O)C(C)(O)C(C)C1O)C23 (stereo unspecified) | > 100 |  | > 100 | > 100 |  | > 100 | > 100 | > 100 | > 100 | > 100 |  |  |  |  |  |  |  |  |  | 
CC1CC2(C)CC(=O)C1C1C(=O)N(CCN3CCCCC3)C(=O)C12 (stereo unspecified) |  |  | > 100 | > 100 |  | > 100 | > 100 | > 100 | > 100 | > 100 | > 100 | > 100 | > 100 | > 100 | > 100 | > 100 | > 100 |  |  | 
COc1ccc(OC)c2c3c(ccc12)C(c1ccccc1)OC3=O (stereo unspecified) | > 100 | 79.9 | > 100 | > 100 | > 100 | > 100 | > 100 | > 100 | > 100 |  |  |  |  |  |  |  |  |  |  | 
CCOC(=O)C(NC(=O)c1[nH]cnc1/N=N/N(C)C)C(C)C (stereo unspecified) | > 100 | > 100 | > 100 | > 100 | > 100 | > 100 | > 100 | > 100 | > 100 |  |  |  |  |  |  |  |  |  |  | 
CN1CCN(c2nc(-c3ccncc3)nc3sc4c(c23)CCCCCC4)CC1 | 29 | 27 | 28 | 26.3 | 26.9 |  | 7.75 | 25.6 | 23 | 26.4 | 12.7 | 12.7 | 12.2 |  | 1.4 | 11.9 | 10.6 | 13.5 | 13.5 | 8.39
Cc1c(C(=O)CSc2nc3ccccc3[nH]2)c(=O)n(-c2ccccc2)n1C | > 100 | > 100 | > 100 | > 100 | > 100 | > 100 | > 100 | > 100 | > 100 |  |  |  |  |  |  |  |  |  |  | 
CCCCCCCCCCCCOP(N)(=O)OCCCCCCCCCCCC | > 100 | > 100 |  | > 100 | > 100 | > 100 | > 100 | > 100 | > 100 |  |  |  |  |  |  |  |  |  |  | 
COc1nc(NC2OC(COC(C)=O)C(OC(C)=O)C(OC(C)=O)C2OC(C)=O)c(-c2csc(N)n2)c(=O)n1C (stereo unspecified) | > 100 | > 100 | > 100 | > 100 | > 100 | > 100 | 51.8 | > 100 | > 100 |  |  |  |  |  |  |  |  |  |  | 
COc1ccc(S(=O)(=O)N(C)CC(=O)O)cc1 | > 100 | > 100 | > 100 | > 100 | > 100 | > 100 | > 100 | > 100 | > 100 |  |  |  |  |  |  |  |  |  |  | 
COc1ccc(CCN=C2CCC(C(=O)NCCc3ccc(OC)c(OC)c3)N2)cc1OC (stereo unspecified) | > 100 | > 100 | > 100 | > 100 | > 100 | > 100 | > 100 | > 100 | > 100 |  |  |  |  |  |  |  |  |  |  | 
CN1CCc2c1nc(-c1ccc([N+](=O)[O-])cc1)c1c2N(C)CC1 | > 100 | > 100 | > 100 | > 100 | > 100 | > 100 | > 100 | > 100 | > 100 |  |  |  |  |  |  |  |  |  |  | 
C[N+](C)(C)CC1CCCC(C[N+](C)(C)C)C1O (stereo unspecified) | > 100 | > 100 | > 100 | > 100 | > 100 | > 100 | > 100 | > 100 | > 100 |  |  |  |  |  |  |  |  |  |  | 
FC1OC2OC1C(OCc1ccccc1)C(OCc1ccccc1)C2OCc1ccccc1 (stereo unspecified) | > 100 | > 100 | > 100 | > 100 | 61.2 | > 100 | > 100 | > 100 | > 100 |  |  |  |  |  |  |  |  |  |  | 
CCCCCCCCCCCCCc1nn[nH]n1 | 40.6 | 32.6 | 35.4 | 81.1 | 64.2 | 34.6 | 36 | 41.4 | 35.9 |  |  |  |  |  |  |  |  |  |  | 
S=c1nc(-c2ccnc(-c3nc(=S)[nH][nH]3)c2)[nH][nH]1 | > 100 | > 100 | > 100 | > 100 | > 100 | > 100 |  | > 100 | > 100 |  |  |  |  |  |  |  |  |  |  | 
CCOc1cc(-c2ccc[nH]2)[nH]c1/C=C1\N=C(C)C(C(=O)OC)=C1C | 1.32 | 1.04 | 1.45 | 1.4 | 0.0898 |  | 0.3 | 1.55 | 0.939 | 1.56 | 0.0549 | 0.0449 | 0.0329 |  | 0.0364 | 0.0321 | 0.0551 | 0.0256 | 0.0329 | 0.0216
CCC1CNC(=O)CC1CC(=O)OC (stereo unspecified) |  | > 100 | > 100 |  |  |  | > 100 | > 100 |  |  |  |  |  |  |  |  |  |  |  | 
COc1cc(NC(=O)Nc2cnc(Nc3ccc(N4CCOCC4)cc3)nc2Oc2cccc(OC)c2)cc(OC)c1 | 2.27 | 3.25 | 2.69 | 3.19 |  | 3.61 | 4.69 | > 50 | 16.8 | 5.82 | 1.73 | 1.13 | 1.31 | 1.19 | 1.1 | 2.99 | 3.36 | 1.12 | 1.27 | 
